Test results from US20240299376A1, “METHOD OF TREATING A CONDITION USING A […] EFFECTIVE DOSE OF 1-(1-OXO-1,2-DIHYDROISOQUINOLIN-5-YL)-5-(TRIFLUOROMETHYL)-N-(2-(TRIFLUOROMETHYL)PYRIDIN-4-YL)-1H-PYRAZOLE-4-CARBOXAMIDE” (Janssen Pharmaceutica NV, priority 2021, published 2024).
Read-outs that look alike come from different tables or passages of the source.

Legend:
[1] = system: OCI-LY3 human DLBCL xenografts; assay: Antitumor efficacy in established OCI-LY3 human DLBCL xenografts; type: in vivo, NSG mice
Procedure: The human ABC-DLBCL cell line OCI-LY3 was obtained from Dr. Miguel A Piris, Hospital Universitario Marques de Valdecilla, Santander, Spain. The human ABC-DLBCL cell line OCI-LY-10 was obtained from University Hospital Network, Ontario Cancer Institute. OCY-LY3 cells were maintained at 37° C. in a humidified atmosphere (5% CO2, 95% air), in RPMI-1640 medium with GlutaMAX™, supplemented with 10% Fetal Bovine Serum (Heat Inactivated at 57° C., and 1% Penicillin-Streptomycin). Each mouse received 1×10^6 cells in serum-free RPMI-1640 medium or PBS with Matrigel basement matrix […] in a total volume of 0.2 mL. Cells were implanted SC in the right flank using a 1 ml syringe and a 26-gauge needle. The day of tumor implantation was designated as Day 0.
Tumor volume was calculated using the formula: tumor volume (mm^3)=(Dxd^2/2); where ‘D’ represents the larger diameter, and ‘d’ the smaller diameter of the tumor as determined by caliper measurements. Tumor volume data was graphically represented as the mean tumor volume±SEM.
Percent tumor growth inhibition (TGI) was defined as the difference between mean tumor volumes of the treated and control group, calculated as
where TVc is the mean tumor volume of a given control group and TVt is the mean tumor volume of the treatment group. As defined by National Cancer Institute criteria, ≥60% TGI is considered biologically significant.
Group tumor volumes are graphed as the mean+/−SEM. Mice were implanted SC on the right flank on Day 0.
For study 3, animals were randomly assigned into treatment groups, when the OCI-LY3 mean tumor volume was 164 mm^3 (Day 32 post-tumor cell implantation). Treatment was initiated on the day of randomization (Day 32). After 28 days of treatment on Day 60, serum was collected at 2, 4, and 12 hours post last dose for the bid treated groups or 2, 4 and 24 hours post last dose for qd treated groups in cohorts of 5 mice. Blood was collected from the retro-orbital sinus and submitted for bioanalytical analysis.

[2] = system: Rec1 (Ibrutinib sensitive MCL); assay: Anti-proliferative activity, DLBCL cell line panel; type: cell-based; settings: Homo sapiens, Rec1, 192 h; antiproliferation after 8 days of treatment
[3] = system: primary T cells; assay: Treg/Teff ratio after CD3/28 stimulation of primary T cells (flow cytometry); type: cell-based, human; settings: compound added 24 hours after CD3/28 stimulation, for 72 hours
Excerpt: The role of MALT1 in the immunologic activity of T cells was investigated by looking at the proportions of Treg and effector T cells (Teff). These cells are in a dynamic balance and their ratio correlates with the effectiveness of protective immunity. An accumulation of Tregs, resulting in a higher Treg/Teff ratio within tumor tissue, is associated with worse prognosis in cancer. Whiteside T L. What are regulatory T cells (Treg) regulating in cancer and why? Semin Cancer Biol. 2012, 22, 327-34. In vitro, activation of T cells through TCR stimulation increases the Treg/Teff ratio by increasing the Treg population, as defined by CD4^+CD25^hiFOXP3^hi.
After 24 hours of pre-stimulation, the compound was added for 72 hours. Alternatively, the compound was added together with the CD3/28 stimulus for 96 hours. Cells were stained for flow cytometric analysis (BD Facs Verse). After gating on the living singlet population, the proportions of CD8^+ Teff and CD4^+CD25^hiFOXP3^hi Treg subpopulations were analysed.

[4] = Preliminary food effect assessment at steady state; type: in vivo, human
Procedure: Preliminary food effect was assessed in 8 subjects at steady state: 2 subjects at 100 mg (2×50 mg), 1 subject at 400 mg (2×200 mg), 1 subject at 200 mg (4×50 mg) and 4 subjects at 300 mg (3×100 mg). In the fasting condition, JNJ-67856633 was administered after overnight fasting for at least 8 hours. In the fed condition, following an overnight fast of at least 8 hours, the subjects were given a high-fat meal 30 minutes before drug intake. In both conditions, no food was allowed for at least 4 hours after study drug intake. Individual plasma concentrations of JNJ-67856633 under fasting and fed conditions using 50 mg or 200 mg capsules are shown in Table 16.

For `O=C(Nc1ccnc(C(F)(F)F)c1)c1cnn(-c2cccc3c(=O)[nH]ccc23)c1C(F)(F)F` [Compound A, 1-(1-oxo-1,2-dihydroisoquinolin-5-yl)-5-(trifluoromethyl)-N-[2-(trifluoromethyl)pyridin-4-yl]-1H-pyrazole-4-carboxamide], the TGI ([1]; 1 mg/kg BID PO, 4 weeks, vs vehicle control) was 37%, the “TGI (%) at day 28” value ([1]; 1 mg/kg, bid (Table 4)) was 46% and the TGI ([1]; 3 mg/kg BID PO, 4 weeks, vs vehicle control) was 19%. The “TGI (%) at day 28” value ([1]; 3 mg/kg, bid (Table 4)) was 23%, the TGI ([1]; 10 mg/kg BID PO, 4 weeks, vs vehicle control) was 53% and the “mean TGI” value ([1]; 10 mg/kg BID, 3 independent OCI-LY3 antitumor efficacy studies) was 60%. The TGI ([1]; 10 mg/kg BID, previous efficacy studies in the OCI-LY3 model) was 51-76%, the TGI ([1]; 10 mg/kg, 8/16 hr split schedule instead of 12/12 hr) was 57% and the “TGI (%) at day 28” value ([1]; 10 mg/kg, bid (Table 4)) was 66%. For the same molecule, the TGI ([1]; 30 mg/kg BID PO, 4 weeks, vs vehicle control) was 72%, the TGI ([1]; 30 mg/kg BID, previous efficacy studies in the OCI-LY3 model) was 60-86% and the “TGI (%) at day 28” value ([1]; 30 mg/kg, bid (Table 4)) was 90%. For the same molecule, the TGI ([1]; 60 mg/kg QD PO, 4 weeks, vs vehicle control) was 57%, the “TGI (%) at day 28” value ([1]; 60 mg/kg, qd (Table 4)) was 71% and the TGI ([1]; 100 mg/kg BID PO, 4 weeks, vs vehicle control) was 72%. For the same molecule, the “TGI (%) at day 28” value ([1]; 100 mg/kg, bid (Table 4)) was 90%, the TGI ([1]; 100 mg/kg, previous efficacy studies in the OCI-LY3 model) was 62-89% and the tolerability ([1]; 1 to 100 mg/kg (BID or QD), OCI-LY3 and OCI-LY10 xenograft models in NSG mice) was “well tolerated”. The minimum efficacious dose ([1]; BID, OCI-LY3 model) was 10 mg/kg, the IC50 [2] was 1170 nM and the “effect on Treg and Teff populations” value [3] was “did not influence the Treg and Ter populations”. The Cmax ([4]; 2 × 50 mg, fasted condition, steady state, individual values, N = 2, listed as JNJ-67856633) was 18200 ng/mL, the Cmax ([4]; 2 × 50 mg, fed condition (high-fat meal), steady state, individual values, N = 2, listed as JNJ-67856633) was 18400 ng/mL and the AUCτ ([4]; 2 × 50 mg, fed condition, steady state, individual values, N = 2, listed as JNJ-67856633) was 421 µg·h/mL. For the same molecule, the “steady state exposure (Cmax and AUCτ) fasting vs fed” value ([4]; 8 subjects at steady state) was “comparable”, the AUC ([4]; human, plasma, oral, 100 mg, 2 × 50 mg, fasted condition, steady state, N = 2) was 313 µg·h/mL and the Cmax ([4]; human, plasma, oral, 100 mg, 2 × 50 mg, fasted condition, steady state, individual values, N = 2, read-out: Cmax) was 15300 ng/mL. The Tmax ([4]; human, plasma, oral, 100 mg, 2 × 50 mg, fasted condition, steady state, individual values, N = 2, read-out: Tmax) was 2 h, the Cmax ([4]; human, plasma, oral, 100 mg, 2 × 50 mg, fed condition (high-fat meal), steady state, individual values, N = 2, read-out: Cmax) was 13400 ng/mL and the AUC ([4]; human, plasma, oral, 100 mg, 2 × 50 mg, fed condition, steady state, individual values, N = 2) was 304 µg·h/mL. For the same molecule, the Tmax ([4]; human, plasma, oral, 100 mg, 2 × 50 mg, fed condition, steady state, individual values, N = 2, read-out: Tmax) was 6 h, the AUC ([4]; human, plasma, oral, 200 mg, 4 × 50 mg, fasted condition, steady state, N = 1) was 958 µg·h/mL and the Cmax ([4]; human, plasma, oral, 200 mg, 4 × 50 mg, fasted condition, steady state, N = 1, read-out: Cmax) was 47500 ng/mL. For the same molecule, the Tmax ([4]; human, plasma, oral, 200 mg, 4 × 50 mg, fasted condition, steady state, N = 1, read-out: Tmax) was 1 h, the AUC ([4]; human, plasma, oral, 200 mg, 4 × 50 mg, fed condition, steady state, N = 1) was 1010 µg·h/mL and the Cmax ([4]; human, plasma, oral, 200 mg, 4 × 50 mg, fed condition, steady state, N = 1, read-out: Cmax) was 48400 ng/mL. The Tmax ([4]; human, plasma, oral, 200 mg, 4 × 50 mg, fed condition, steady state, N = 1, read-out: Tmax) was 24 h, the AUC ([4]; human, plasma, oral, 400 mg, 2 × 200 mg, fasted condition, steady state, N = 1) was 1100 µg·h/mL and the Cmax ([4]; human, plasma, oral, 400 mg, 2 × 200 mg, fasted condition, steady state, N = 1, read-out: Cmax) was 61100 ng/mL. The AUC ([4]; human, plasma, oral, 400 mg, 2 × 200 mg, fed condition, steady state, N = 1) was 1320 µg·h/mL, the Cmax ([4]; human, plasma, oral, 400 mg, 2 × 200 mg, fed condition, steady state, N = 1, read-out: Cmax) was 64000 ng/mL and the Tmax ([4]; human, plasma, oral, fasting conditions, 8 subjects at steady state, read-out: Tmax range) was 0 to 4 h. For the same molecule, the Tmax ([4]; human, plasma, oral, fed conditions, 8 subjects at steady state, read-out: Tmax range) was 0.5 to 24 h.
